Reference: article PMC5011342, “A high throughput drug screening assay to identify compounds that promote oligodendrocyte differentiation using acutely dissociated and purified oligodendrocyte precursor cells” (BMC Research Notes, 2016)
Read-outs that look alike come from different tables or passages of the source.

What was measured:
[1] = test system: acutely dissociated and purified rat OPCs; assay: Acute OL differentiation assay (MBP expression/cell, immunofluorescent image quantification); format: cell-based; settings: sheet "All OLga data"; for activation at 2 µM / 2 uM (% Quet): test compound at 2 uM; for activation at 2 µM: read-out: 2 uM (% Quet); for activation at 10 µM / 10 uM (% Quet): test compound at 10 uM; for activation at 10 µM: read-out: 10 uM (% Quet)
Method in brief: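 Oligodendrocyte precursor cells were enriched from P6-P7 Sprague–Dawley rat brains by immunopanning (RAN-2 and GalC depletion, O4 selection), plated at 5000 cells/well in serum-free, mitogen-free differentiation media on PDL/laminin 96-well view plates, centrifuged at 200×g, and pre-incubated 1–2 h before test compounds were added in quadruplicate. On DIV4, cells were fixed, stained for MBP and DAPI, imaged automatically, and MBP expression per cell was quantified.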

expanded OPCs = assay: cells; settings: for viability at 0.1 µM / viability at 1 µM / viability at 10 µM: Rattus norvegicus, 72 h; for viability at 0.1 µM: read-out: 0.1 µM (% DMSO), alamarBlue viability, NCC library compound at 0.1 µM, sheet "All Tox data"; for viability at 1 µM: read-out: 1 µM (% DMSO), alamarBlue viability, NCC library compound at 1 µM, sheet "All Tox data"; for viability at 10 µM: read-out: 10 µM (% DMSO), alamarBlue viability, NCC library compound at 10 µM, sheet "All Tox data"
Method in brief: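 Expanded OPCs seeded at 10,000 cells/well in differentiation media, then exposed to NCC library compounds at 10, 1 and 0.1 µM (quadruplicate, 0.1% DMSO) for three days. Viability read as alamarBlue fluorescence (560/590 nm) after 4 h at 37 °C; tunicamycin 5 ng/ml served as toxicity control.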

[2] = Rattus norvegicus, MBP expression relative to quetiapine, NCC library screen
[3] = alamarBlue viability of expanded OPCs, compound at 0.1 µM, relative to DMSO control
[4] = alamarBlue viability of expanded OPCs, compound at 1 µM, relative to DMSO control
[5] = alamarBlue viability of expanded OPCs, compound at 10 µM, relative to DMSO control
[6] = Rattus norvegicus, NCC library screen, relative to quetiapine
[7] = NCC library screen, relative to quetiapine
[8] = alamarBlue viability, NCC library compound at 0.1 µM, sheet "All Tox data"
[9] = alamarBlue viability, NCC library compound at 1 µM, sheet "All Tox data"
[10] = alamarBlue viability, NCC library compound at 10 µM, sheet "All Tox data"

| Compound | activation at 2 µM [1, 2] [%] | activation at 10 µM [1, 2] [%] | 0.1 µM (% DMSO) (expanded OPCs; [3]) | 1 µM (% DMSO) (expanded OPCs; [4]) | 10 µM (% DMSO) (expanded OPCs; [5]) | activation at 2 µM [1, 6] [%] | activation at 10 µM [1, 6] [%] | viability at 0.1 µM (expanded OPCs) [%] | viability at 1 µM (expanded OPCs) [%] | viability at 10 µM (expanded OPCs) [%] | also measured |
| --- | --- | --- | --- | --- | --- | --- | --- | --- | --- | --- | --- |
| Nc1nc(O)c2ncn(COC(CO)CO)c2n1 [Ganciclovir] | 3.8 | -9.7 | 103.0 | 100.7 | 106.5 | – | – | – | – | – | – |
| COc1c(N2CCNC(C)C2)c(F)cc2c(=O)c(C(=O)O)cn(C3CC3)c12 (stereo not shown) [Gatifloxacin] | 34.6 | 24.6 | 99.4 | 98.0 | 96.4 | – | – | – | – | – | – |
| Cc1ccc(C)c(OCCCC(C)(C)C(=O)O)c1 [Gemfibrozil] | – | – | 90.1 | 88.1 | 86.3 | 0.66 | 16.1 | – | – | – | – |
| CCC1=C(C)CN(C(=O)NCCc2ccc(S(=O)(=O)NC(=O)N[C@H]3CC[C@H](C)CC3)cc2)C1=O [Glimepiride] | – | – | – | – | – | -12.7 | -54 | 97.2 | 82.6 | 83.6 | – |
| Cc1cnc(C(=O)NCCc2ccc(S(=O)(=O)NC(=O)NC3CCCCC3)cc2)cn1 [Glipizide] | – | – | 88.0 | 86.3 | 83.0 | 6.4 | 8.4 | – | – | – | – |
| COc1ccc(Cl)cc1C(=O)NCCc1ccc(S(=O)(=O)NC(=O)NC2CCCCC2)cc1 [Glyburide] | – | – | 95.4 | 91.5 | 85.2 | -19.5 | -20.2 | – | – | – | – |
| C[N+]1(C)CCC(OC(=O)C(O)(c2ccccc2)C2CCCC2)C1 (stereo not shown) [Glycopyrrolate] | 26.7 | 27.6 | 100.4 | 104.4 | 113.1 | 7.1 | 19.5 | 96.7 | 91.4 | 115 | – |
| CC(C)C[C@H](NC(=O)[C@@H](COC(C)(C)C)NC(=O)[C@H](Cc1ccc(O)cc1)NC(=O)[C@H](CO)NC(=O)[C@H](Cc1c[nH]c2ccccc12)NC(=O)[C@H](Cc1cnc[nH]1)NC(=O)[C@@H]1CCC(=O)N1)C(=O)N[C@@H](CCCNC(=N)N)C(=O)N1CCC[C@H]1C(=O)NNC(N)=O [Goserelin] | – | – | – | – | – | – | – | – | – | – | 2 uM (% Quet) [1, 7]: -6.3 % Quet; 10 uM (% Quet) [1, 7]: 5.4 % Quet; 0.1 µM (% DMSO) (expanded OPCs; [8]): 95.7 % DMSO; 1 µM (% DMSO) (expanded OPCs; [9]): 94.5 % DMSO; 10 µM (% DMSO) (expanded OPCs; [10]): 97.2 % DMSO |
| CN1C2CCCC1CC(NC(=O)c1nn(C)c3ccccc13)C2 (stereo not shown) [Granisetron] | – | – | – | – | – | -25.3 | -23.7 | 84.1 | 87.1 | 72.4 | – |
| COC1=CC(=O)C[C@@H](C)[C@]12Oc1c(Cl)c(OC)cc(OC)c1C2=O [Griseofulvin] | -7.2 | -53.4 | 95.9 | 93.1 | 66.2 | – | – | – | – | – | – |
| N=C(N)N [Guanidine] | – | – | – | – | – | – | – | – | – | – | 2 uM (% Quet) [1, 7]: 1.4 % Quet; 10 uM (% Quet) [1, 7]: 5.3 % Quet; 0.1 µM (% DMSO) (expanded OPCs; [8]): 86.5 % DMSO; 1 µM (% DMSO) (expanded OPCs; [9]): 89.1 % DMSO; 10 µM (% DMSO) (expanded OPCs; [10]): 85.5 % DMSO |
| C[C@@H]1C[C@H]2[C@@H]3C[C@H](F)C4=CC(=O)C(Cl)=C[C@]4(C)[C@@]3(F)[C@@H](O)C[C@]2(C)[C@@]1(O)C(=O)CO.O [Halometasone hydrate] | – | – | – | – | – | – | – | – | – | – | OL differentiation, 2 uM (% Quet) ([1]; 2 uM test compound, relative to quetiapine): -42.5 % Quet; OL differentiation, 10 uM (% Quet) ([1]; 10 uM test compound, relative to quetiapine): -89.7 % Quet; 0.1 µM (% DMSO) (expanded OPCs; alamarBlue viability of expanded OPCs, compound at 0.1 µM, sheet All Tox data): 103.7 % DMSO; 1 µM (% DMSO) (expanded OPCs; alamarBlue viability of expanded OPCs, compound at 1 µM, sheet All Tox data): 109.3 % DMSO; 10 µM (% DMSO) (expanded OPCs; alamarBlue viability of expanded OPCs, compound at 10 µM, sheet All Tox data): 105.9 % DMSO |
| O=C(CCCN1CCC(O)(c2ccc(Cl)cc2)CC1)c1ccc(F)cc1 [Haloperidol] | – | – | – | – | – | 4.1 | – | 64 | 69.1 | 45.7 | activation at 0.4 µM ([1]; Rattus norvegicus, test compound at 0.4 uM, NCC library screen, relative to quetiapine, read-out: 0.4 uM (% Quet)): -22.3% |
